Experimental data reported in patent US10035801B2, “Pyrazolo compounds and uses thereof” (CONSTELLATION PHARMACEUTICALS, INC., priority 2013, dated 2018).

Molecular target: T1, KDM5A (Homo sapiens, UniProt P29375)
T1 construct: Full length KDM5A enzyme was expressed and purified inhouse; made in house
Assay: KDM5 enzyme assay, KDM5A HTRF (Example 463)
Format: biochemical
Details: compounds of Examples 1-432; read-out: Example 463 Assay KDM5A HTRF IC50

T1 sequence (P29375 whole entry): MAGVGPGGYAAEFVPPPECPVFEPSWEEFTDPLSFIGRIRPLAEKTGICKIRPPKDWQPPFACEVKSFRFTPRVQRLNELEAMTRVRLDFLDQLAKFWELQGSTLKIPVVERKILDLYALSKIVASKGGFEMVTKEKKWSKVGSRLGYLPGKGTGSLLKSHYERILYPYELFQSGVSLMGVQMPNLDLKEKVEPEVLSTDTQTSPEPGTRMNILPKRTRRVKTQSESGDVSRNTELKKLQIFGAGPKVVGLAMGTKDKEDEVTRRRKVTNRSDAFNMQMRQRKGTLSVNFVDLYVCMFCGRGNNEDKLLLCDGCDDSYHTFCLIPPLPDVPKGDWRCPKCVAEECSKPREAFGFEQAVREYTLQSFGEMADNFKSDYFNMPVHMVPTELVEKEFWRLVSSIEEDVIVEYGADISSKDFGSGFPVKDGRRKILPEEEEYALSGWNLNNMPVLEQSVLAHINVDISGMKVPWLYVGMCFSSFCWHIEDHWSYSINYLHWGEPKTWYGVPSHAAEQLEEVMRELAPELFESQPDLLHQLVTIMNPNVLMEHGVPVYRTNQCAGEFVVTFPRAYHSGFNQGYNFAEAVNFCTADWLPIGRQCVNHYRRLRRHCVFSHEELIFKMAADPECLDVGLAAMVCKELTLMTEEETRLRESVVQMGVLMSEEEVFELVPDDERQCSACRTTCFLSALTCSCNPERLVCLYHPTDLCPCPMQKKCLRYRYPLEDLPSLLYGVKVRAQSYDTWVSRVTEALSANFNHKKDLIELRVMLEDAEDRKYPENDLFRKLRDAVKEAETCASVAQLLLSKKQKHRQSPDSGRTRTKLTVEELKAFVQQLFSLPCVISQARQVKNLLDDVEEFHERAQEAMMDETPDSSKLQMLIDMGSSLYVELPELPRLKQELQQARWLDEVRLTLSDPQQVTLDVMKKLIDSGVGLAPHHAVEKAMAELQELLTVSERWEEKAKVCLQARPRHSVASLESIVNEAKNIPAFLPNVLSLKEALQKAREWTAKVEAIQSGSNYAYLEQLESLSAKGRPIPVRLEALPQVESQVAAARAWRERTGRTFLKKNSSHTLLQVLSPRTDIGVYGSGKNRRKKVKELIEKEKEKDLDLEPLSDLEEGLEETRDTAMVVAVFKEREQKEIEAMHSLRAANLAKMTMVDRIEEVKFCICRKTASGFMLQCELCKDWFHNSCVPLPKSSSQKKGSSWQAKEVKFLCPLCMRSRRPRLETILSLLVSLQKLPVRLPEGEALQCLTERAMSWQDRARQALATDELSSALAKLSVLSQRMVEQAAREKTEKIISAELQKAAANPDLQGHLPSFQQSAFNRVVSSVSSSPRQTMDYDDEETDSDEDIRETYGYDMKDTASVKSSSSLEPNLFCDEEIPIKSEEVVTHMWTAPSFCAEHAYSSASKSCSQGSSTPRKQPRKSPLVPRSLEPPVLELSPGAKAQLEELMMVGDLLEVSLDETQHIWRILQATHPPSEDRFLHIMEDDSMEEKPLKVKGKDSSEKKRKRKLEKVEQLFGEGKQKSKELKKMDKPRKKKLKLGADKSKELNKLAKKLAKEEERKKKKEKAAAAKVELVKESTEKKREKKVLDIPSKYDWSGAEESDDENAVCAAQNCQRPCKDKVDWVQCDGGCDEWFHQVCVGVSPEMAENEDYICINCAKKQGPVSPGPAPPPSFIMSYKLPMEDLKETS

Row | IC50 [nM] | Compound
1 | 35 | CC(C)c1c(-c2cccc(C(=O)N3CCN(C)CC3)c2)[nH]c2c(C#N)cnn2c1=O [Compound 400]
2 | 39 | CC(C)c1c(-c2cccc(C(C)(C)O)c2)[nH]c2c(C#N)cnn2c1=O [Compound 401]
3 | 58 | Cc1nn(C(C)C)cc1-c1[nH]c2c(C#N)cnn2c(=O)c1C(C)C [Compound 402]
4 | 57 | Cc1c(-c2[nH]c3c(C#N)cnn3c(=O)c2C(C)C)cnn1C(C)C [Compound 403]
5 | 18 | C=CC(C)c1c(-c2ccccc2)[nH]c2c(C#N)cnn2c1=O (centres unmarked) [Compound 404]
6 | 12 | CC(C)c1c(-c2cc(C3CC3)n[nH]2)[nH]c2c(C#N)cnn2c1=O [Compound 405]
7 | 15 | COC(=O)c1cc(-c2[nH]c3c(C#N)cnn3c(=O)c2C(C)C)c[nH]1 [Compound 406]
8 | 48 | CC(C)c1c(-c2cc(C3CC3)nn2C(C)C)[nH]c2c(C#N)cnn2c1=O [Compound 407]
9 | 150 | CC(C)c1c(-c2cc(C3CC3)n(C(C)C)n2)[nH]c2c(C#N)cnn2c1=O [Compound 408]
10 | 44 | COC(=O)c1cc(-c2[nH]c3c(C#N)cnn3c(=O)c2C(C)C)cn1C(C)C [Compound 409]
11 | 39 | CC(C)c1c(-c2cc(C(F)(F)F)nn2C)[nH]c2c(C#N)cnn2c1=O [Compound 410]
12 | 35 | CC(C)c1c(-c2ccn(C(C)C)n2)[nH]c2c(C#N)cnn2c1=O [Compound 411]
13 | 46 | CC(C)c1c(-c2cc(C3CC3)n(C3CCCC3)n2)[nH]c2c(C#N)cnn2c1=O [Compound 412]
14 | 110 | CC(C)c1c(-c2cc(C3CC3)nn2C2CCCC2)[nH]c2c(C#N)cnn2c1=O [Compound 413]
15 | 14 | CC(C)c1c(-c2ccn(C3CCCC3)n2)[nH]c2c(C#N)cnn2c1=O [Compound 414]
16 | 77 | CC(C)c1c(-c2ccnn2C(C)C)[nH]c2c(C#N)cnn2c1=O [Compound 415]
17 | 48 | CNC(=O)c1cc(-c2[nH]c3c(C#N)cnn3c(=O)c2C(C)C)cn1C(C)C [Compound 416]
18 | 31 | CC(C)c1c(-c2cc(C(=O)N(C)C)n(C(C)C)c2)[nH]c2c(C#N)cnn2c1=O [Compound 417]
19 | 13 | CC(C)c1c(-c2ccn(CCC3CC3)n2)[nH]c2c(C#N)cnn2c1=O [Compound 418]

Row | IC50 [nM] | Compound
20 | 88 | CC(C)c1c(-c2ccnn2CCC2CC2)[nH]c2c(C#N)cnn2c1=O [Compound 419]
21 | 23 | CCn1ccc(-c2[nH]c3c(C#N)cnn3c(=O)c2C(C)C)n1 [Compound 420]
22 | 19 | CCc1c(-c2cccc(N3CCCC3=O)c2)[nH]c2c(C#N)cnn2c1=O [Compound 421]
23 | 29 | CCc1c(-c2cccc(N3CCC(C)(C)C3=O)c2)[nH]c2c(C#N)cnn2c1=O [Compound 422]
24 | 20 | CCc1c(-c2cccc(N3CCC(c4ccccc4)C3=O)c2)[nH]c2c(C#N)cnn2c1=O (centres unmarked) [Compound 423]
25 | 8 | CC(C)c1c(-c2cccc(N3CCC(c4ccccc4)C3=O)c2)[nH]c2c(C#N)cnn2c1=O (centres unmarked) [Compound 424]
26 | 16 | C=CCc1c(-c2cnn(C(C)C)c2)[nH]c2c(C#N)cnn2c1=O [Compound 425]
27 | 23 | CCc1c(-c2cccc(/C=C/c3ccccc3)c2)[nH]c2c(C#N)cnn2c1=O [Compound 426]
28 | 39 | CC(C)c1c(-c2cccc(-c3cccc(C#N)c3)c2)[nH]c2c(C#N)cnn2c1=O [Compound 427]
29 | 14 | CC(C)c1c(-c2cccc(-c3cccc(NS(C)(=O)=O)c3)c2)[nH]c2c(C#N)cnn2c1=O [Compound 428]
30 | 27 | CC(C)c1c(-c2cccc(-c3ccc(NS(C)(=O)=O)cc3)c2)[nH]c2c(C#N)cnn2c1=O [Compound 429]
31 | 32 | CNS(=O)(=O)c1ccc(-c2cccc(-c3[nH]c4c(C#N)cnn4c(=O)c3C(C)C)c2)cc1 [Compound 430]
32 | 21 | CC(C)n1cc(-c2[nH]c3c(C#N)cnn3c(=O)c2C2CCC2)cn1 [Compound 431]
33 | 56 | CC(C)n1cc(-c2[nH]c3c(C#N)cnn3c(=O)c2C2(C)CCC2)cn1 [Compound 432]
34 | 4.3 | CC(C)c1c(Cl)[nH]c2c(C#N)cnn2c1=O [Example 1, 5-chloro-6-isopropyl-7-oxo-4,7-dihydropyrazolo[1,5-a]pyrimidine-3-carbonitrile]
35 | 3 | CCc1c(Cl)[nH]c2c(C#N)cnn2c1=O [Example 2, 5-chloro-6-ethyl-7-oxo-4,7-dihydropyrazolo[1,5-a]pyrimidine-3-carbonitrile]
36 | 3.8 | CC(C)c1c(-c2ccoc2)[nH]c2c(C#N)cnn2c1=O [Example 3, 5-(furan-3-yl)-6-isopropyl-7-oxo-4,7-dihydropyrazolo[1,5-a]pyrimidine-3-carbonitrile]
37 | 65 | CC(C)c1c(-c2ccoc2)n(C)c2c(C#N)cnn2c1=O [Example 4, 5-(furan-3-yl)-6-isopropyl-4-methyl-7-oxo-4,7-dihydropyrazolo[1,5-a]pyrimidine-3-carbonitrile]
38 | 5.5 | CC(C)c1c(-c2cn[nH]c2)[nH]c2c(C#N)cnn2c1=O [Example 5, 6-Isopropyl-7-oxo-5-(1H-pyrazol-4-yl)-4,7-dihydropyrazolo[1,5-a]pyrimidine-3-carbonitrile]

Row | IC50 [nM] | Compound
39 | 13 | CC(C)c1c(-c2cnn(CC3CC3)c2)[nH]c2c(C#N)cnn2c1=O [Example 6, 5-(1-(Cyclopropylmethyl)-1H-pyrazol-4-yl)-6-isopropyl-7-oxo-4,7-dihydropyrazolo[1,5-a]pyrimidine-3-carbonitrile]
40 | 30 | CC(C)c1c(-c2cnn(C3(C)CC3)c2)[nH]c2c(C#N)cnn2c1=O [Example 7, 6-Isopropyl-5-(1-(1-methylcyclopropyl)-1H-pyrazol-4-yl)-7-oxo-4,7-dihydropyrazolo[1,5-a]pyrimidine-3-carbonitrile]
41 | 22 | CC(C)c1c(-c2cn(C(C)C)nc2F)[nH]c2c(C#N)cnn2c1=O [Example 8, 5-(3-Fluoro-1-isopropyl-1H-pyrazol-4-yl)-6-isopropyl-7-oxo-4,7-dihydropyrazolo[1,5-a]pyrimidine-3-carbonitrile]
42 | 40 | CC(C)c1c(-c2cnn(C(C)(C)c3ccccc3)c2)[nH]c2c(C#N)cnn2c1=O [Example 9, 6-Isopropyl-7-oxo-5-(1-(2-phenylpropan-2-yl)-1H-pyrazol-4-yl)-4,7-dihydropyrazolo[1,5-a]pyrimidine-3-carbonitrile]
43 | 24 | CC(C)c1c(-c2cnn(-c3cccnc3)c2)[nH]c2c(C#N)cnn2c1=O [Example 10, 6-Isopropyl-7-oxo-5-(1-(pyridin-3-yl)-1H-pyrazol-4-yl)-4,7-dihydropyrazolo[1,5-a]pyrimidine-3-carbonitrile]
44 | 14 | CC(C)c1c(-c2cnn(-c3ccncc3)c2)[nH]c2c(C#N)cnn2c1=O [Example 11, 6-Isopropyl-7-oxo-5-(1-(pyridin-4-yl)-1H-pyrazol-4-yl)-4,7-dihydropyrazolo[1,5-a]pyrimidine-3-carbonitrile]
45 | 18 | CC(C)c1c(-c2cnn(-c3ccccn3)c2)[nH]c2c(C#N)cnn2c1=O [Example 12, 6-Isopropyl-7-oxo-5-(1-(pyridin-2-yl)-1H-pyrazol-4-yl)-4,7-dihydropyrazolo[1,5-a]pyrimidine-3-carbonitrile]
46 | 23 | CNC(=O)C(C)(C)n1cc(-c2[nH]c3c(C#N)cnn3c(=O)c2C(C)C)cn1 [Example 13, 2-(4-(3-Cyano-6-isopropyl-7-oxo-4,7-dihydropyrazolo[1,5-a]pyrimidin-5-yl)-1H-pyrazol-1-yl)-N,2-dimethylpropanamide]
47 | 5.3 | CC(C)c1c(-c2cnn(C(C)C)c2F)[nH]c2c(C#N)cnn2c1=O [Example 14, 5-(5-Fluoro-1-isopropyl-1H-pyrazol-4-yl)-6-isopropyl-7-oxo-4,7-dihydropyrazolo[1,5-a]pyrimidine-3-carbonitrile]
48 | 41 | CC(C)c1c(-c2cnn(C3CCSCC3)c2)[nH]c2c(C#N)cnn2c1=O [Example 17, 6-isopropyl-7-oxo-5-(1-(tetrahydro-2H-thiopyran-4-yl)-1H-pyrazol-4-yl)-4,7-dihydropyrazolo[1,5-a]pyrimidine-3-carbonitrile]
49 | 21 | CC(C)c1c(-c2cnn(C3CCS(=O)(=O)CC3)c2)[nH]c2c(C#N)cnn2c1=O [Example 18, 5-(1-(1,1-Dioxidotetrahydro-2H-thiopyran-4-yl)-1H-pyrazol-4-yl)-6-isopropyl-7-oxo-4,7-dihydropyrazolo[1,5-a]pyrimidine-3-carbonitrile]
50 | 55 | CC(=O)/C=C/c1cccc(Cn2cc(-c3[nH]c4c(C#N)cnn4c(=O)c3C(C)C)cn2)n1 [Example 19, (E)-6-isopropyl-7-oxo-5-(1-((6-(3-oxobut-1-en-1-yl)pyridin-2-yl)methyl)-1H-pyrazol-4-yl)-4,7-dihydropyrazolo[1,5-a]pyrimidine-3-carbonitrile]
51 | 37 | CCc1c[nH]c2c(C#N)cnn2c1=O [Example 20, 6-Ethyl-7-oxo-4,7-dihydropyrazolo[1,5-a]pyrimidine-3-carbonitrile]
52 | 38 | CC(C)(C)c1c[nH]c2c(C#N)cnn2c1=O [Example 21, 6-(tert-Butyl)-7-oxo-4,7-dihydropyrazolo[1,5-a]pyrimidine-3-carbonitrile]
53 | 9.8 | CC(C)c1c(CCc2ccccc2)[nH]c2c(C#N)cnn2c1=O [Example 23, 6-isopropyl-7-oxo-5-phenethyl-4,7-dihydropyrazolo[1,5-a]pyrimidine-3-carbonitrile]
54 | 7 | CCc1c(-c2cccc(I)c2)[nH]c2c(C#N)cnn2c1=O [Example 24, 6-ethyl-5-(3-iodophenyl)-7-oxo-4,7-dihydropyrazolo[1,5-a]pyrimidine-3-carbonitrile]
55 | 220 | CCc1c(C(=O)O)[nH]c2c(C#N)cnn2c1=O [Example 25, 3-cyano-6-ethyl-7-oxo-4,7-dihydropyrazolo[1,5-a]pyrimidine-5-carb oxylic acid]
56 | 4400 | CCc1c(C(N)=O)n(C)c2c(C#N)cnn2c1=O [Example 26, 3-cyano-6-ethyl-4-methyl-7-oxo-4,7-dihydropyrazolo[1,5-a]pyrimidine-5-carboxamide]
